The values below are quoted from earlier work in patent publication US20110160463A1, “PROCESS FOR MAKING SUBSTITUTED 2-AMINO-THIAZOLONES” (Amgen Inc., priority 2008, published 2011).

Data set [1] addresses T1, 11βHSD1 (Homo sapiens, UniProt P28845).
T1 construct: reduce the intraocular pressure by 20% in normal subjects; host or cells: endogenous enzyme in living subjects (eye)
As to conditions: ingestion, normal subjects.
T1 sequence (P28845 whole entry): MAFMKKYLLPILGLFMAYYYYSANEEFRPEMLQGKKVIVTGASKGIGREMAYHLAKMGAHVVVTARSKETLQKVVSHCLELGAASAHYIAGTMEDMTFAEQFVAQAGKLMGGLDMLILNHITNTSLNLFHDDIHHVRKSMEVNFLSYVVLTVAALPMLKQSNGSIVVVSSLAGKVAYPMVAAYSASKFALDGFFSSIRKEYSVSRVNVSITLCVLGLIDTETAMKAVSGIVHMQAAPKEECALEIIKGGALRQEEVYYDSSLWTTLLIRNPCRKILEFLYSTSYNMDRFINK

Data set [2] deals with T2, 11βHSD1 (Homo sapiens, UniProt P28845).
T2 construct: Hepatic insulin sensitivity was improved in healthy human volunteers; host or cells: endogenous enzyme in human volunteers (liver)
As to conditions: healthy human volunteers.
T2 sequence (P28845 whole entry): as above

Regarding `CC1(C)[C@@H](OC(=O)CCC(=O)O)CC[C@]2(C)[C@H]3C(=O)C=C4[C@@H]5C[C@@](C)(C(=O)O)CC[C@]5(C)CC[C@@]4(C)[C@]3(C)CC[C@@H]12` [carbenoxolone], on 11βHSD1 [1], the “reduction of the intraocular pressure” value was 20%. On 11βHSD1 [2], the hepatic insulin sensitivity result was “improved”. Also, the “negative effect (of glucocorticoids) on bone nodule formation” value with bone nodule formation is reported as “blocked”.
